Read-outs that look alike come from different tables or passages of the source.
Tested on: RSV
Assay: Dose-response counterscreen: luciferase reporter virus infection of BEAS-2B cells (EC50)
Format: cell-based, respiratory syncytial virus (RSV)
Settings: human respiratory syncytial virus, read-out: Potency Range (EC50 values)
[1] = A series compounds, anti-RSV potency

| SMILES | EC50 (B series compounds) [µM] | EC50 [1] [µM] |
| --- | --- | --- |
| Cc1c2c(=O)n(-c3nc4ccccc4s3)n(Cc3ccccc3)c2cc(=O)n1CC1CCNCC1 [AVG-038] | > 20 |  |
| COc1ccc(-c2cc(=O)[nH]c3c2cnn3-c2ccccc2)cc1OC1CCCC1 [AVG-067, 4-(3-(cyclopentyloxy)-4-methoxyphenyl)-1-phenyl-1H-pyrazolo[3,4-b]pyridine-6(7H)-one] |  | > 20 |
| Cc1c2c(=O)n(-c3nc4c(Cl)cccc4s3)n(Cc3ccccc3)c2cc(=O)n1Cc1cccc(Cl)n1 [AVG-183] | 0.01 to 0.1 |  |
| Cc1c2c(=O)n(-c3nc4ccccc4s3)n(Cc3ccccc3)c2cc(=O)n1Cc1ccn(C)n1 [AVG-103] | 1 to 10 |  |
| Cc1c2c(=O)n(-c3nc4ncccc4s3)n(Cc3ccccc3)c2cc(=O)n1Cc1cccc(Cl)n1 [AVG-195] | 0.01 to 0.1 |  |
| CC(C)c1c2c(=O)n(-c3nc4ccccc4s3)n(Cc3ccccc3)c2cc(=O)n1Cc1cccc(Cl)n1 [AVG-166] | 1 to 10 |  |
| Cc1c2c(=O)n(-c3nc4ccccc4s3)n(Cc3ccccc3)c2cc(=O)n1CC1CCN(C)CC1 [AVG-039] | 10 to 20 |  |
| Cc1c2c(=O)n(-c3nc4ccccc4s3)n(Cc3ccccc3)c2cc(=O)n1Cc1ncccn1 [AVG-090] | 10 to 20 |  |
| COc1cccc(Cn2c(C)c3c(=O)n(-c4nc5ccccc5s4)n(Cc4ccccc4)c3cc2=O)n1 [AVG-158] | 0.1 to 1 |  |
| COc1ccc2sc(-n3c(=O)c4c(C)n(Cc5cccc(Cl)n5)c(=O)cc4n3Cc3ccccc3)nc2c1 [AVG-188] | 0.1 to 1 |  |
| Cc1c2c(=O)n(-c3nc4ccccc4s3)n(Cc3ccccc3)c2cc(=O)n1CC1CCC(=O)N1C (stereo not shown) [AVG-212] | 10 to 20 |  |
| COc1cccc2sc(-n3c(=O)c4c(C)n(Cc5cccc(Cl)n5)c(=O)cc4n3Cc3ccccc3)nc12 [AVG-187] | 0.1 to 1 |  |
| Cc1c2c(=O)n(-c3nc4ccccc4s3)n(Cc3ccccc3)c2cc(=O)n1C1CCNCC1 [AVG-041] | 1 to 10 |  |
| COc1cc(C2CC(=O)Nc3c2c(OS(=O)(=O)C(F)(F)F)nn3-c2nc3ccccc3s2)ccc1OC1CCCC1 (stereo not shown) [AVG-257, 1-(benzo[d]thiazol-2-yl)-4-(4-(cyclopentyloxy)-3-methoxyphenyl)-6-oxo-4,5,6,7-tetrahydro-1H-pyrazolo[3,4-b]pyridin-3-yl trifluoromethanesulfonate] | 10 to 20 |  |
| Cc1c2c(=O)n(-c3cccnc3)n(Cc3ccccc3)c2cc(=O)n1Cc1ccco1 [AVG-081] | 10 to 20 |  |
| Cc1c2c(=O)n(-c3nc4ccccc4s3)n(Cc3ccoc3)c2cc(=O)n1Cc1ccco1 [AVG-123] | 10 to 20 |  |
| Cc1c2c(=O)n(-c3ccccn3)n(Cc3ccccc3)c2cc(=O)n1Cc1cccc(Cl)c1 [AVG-128] | 0.1 to 1 |  |
| Cc1c2c(=O)n(-c3ccccc3)n(Cc3ccccc3)c2cc(=O)n1Cc1ccccn1 [AVG-107] | 1 to 10 |  |
| Cc1c2c(=O)n(-c3nc4ccccc4s3)n(Cc3ccccc3)c2cc(=O)n1Cc1ncco1 [AVG-096] | 1 to 10 |  |
| Cc1c2c(=O)n(-c3cnccn3)n(Cc3ccccc3)c2cc(=O)n1Cc1ccco1 [AVG-106] | 1 to 10 |  |
| Cc1c2c(=O)n(-c3cc4ccccc4cn3)n(Cc3ccccc3)c2cc(=O)n1Cc1ccco1 [AVG-034] | 1 to 10 |  |
| Cc1c2c(=O)n(-c3nc4ccccc4s3)n(Cc3ccccc3)c2cc(=O)n1Cc1ccc(Cl)cc1 [AVG-031] | 0.1 to 1 |  |
| Cc1c2c(=O)n(-c3nc4ccccc4s3)n(Cc3ccccc3)c2cc(=O)n1C1CCN(C)CC1 [AVG-042] | 1 to 10 |  |
| Cc1c2c(=O)n(-c3nc4ccccc4s3)n(Cc3ccccc3)c2cc(=O)n1Cc1cccc(C(F)(F)F)n1 [AVG-201] | 0.1 to 1 |  |
| Cc1c2c(=O)n(-c3nc4ccccc4s3)n(Cc3ccccc3)c2cc(=O)n1Cc1cccc(N2CCOCC2)n1 [AVG-228] | 0.1 to 1 |  |
| COc1ccc(C2CC(=O)Nc3c2cnn3-c2ccccn2)cc1OC1CCCC1 (stereo not shown) [AVG-116] |  | 1 to 10 |

| SMILES | EC50 (B series compounds) [µM] | EC50 [1] [µM] |
| --- | --- | --- |
| Cc1ccc2sc(-n3c(=O)c4c(C)n(Cc5cccc(Cl)n5)c(=O)cc4n3Cc3ccccc3)nc2c1 [AVG-192] | 0.1 to 1 |  |
| COc1cc(C2CC(=O)Nc3c2cnn3-c2ccccn2)ccc1OC1CCCC1 (stereo not shown) [AVG-180] |  | 10 to 20 |
| Cc1c2c(=O)n(-c3nc4ccccc4s3)n(Cc3ccccn3)c2cc(=O)n1Cc1ccco1 [AVG-119] | 1 to 10 |  |
| Cc1c2c(=O)n(-c3ccccn3)n(Cc3ccccc3)c2cc(=O)n1Cc1ccco1 [AVG-035] | 1 to 10 |  |
| COc1cccc(Cn2c(C)c3c(=O)n(-c4ccccn4)n(Cc4ccccc4)c3cc2=O)n1 [AVG-203] | 0.01 to 0.1 |  |
| Cc1c2c(=O)n(-c3nc4ccccc4s3)n(Cc3ccccc3)c2cc(=O)n1Cc1cccc(OCCN(C)C)n1 [AVG-206] | 1 to 10 |  |
| Cc1c2c(=O)n(-c3nc4ccccc4s3)n(Cc3ccccc3)c2cc(=O)n1Cc1ncc[nH]1 [AVG-097] | 1 to 10 |  |
| Cc1c2c(=O)n(-c3ccccn3)n(Cc3ccccc3)c2cc(=O)n1Cc1cccc(OC(C)C)n1 [AVG-230] | 0.1 to 1 |  |
| Cc1c2c(=O)n(-c3nc4ccccc4s3)n(Cc3ccccc3)c2cc(=O)n1Cc1cn(C)cn1 [AVG-100] | > 20 |  |
| Cc1c2c(=O)n(-c3nc4ccccc4s3)n(CC3CCNCC3)c2cc(=O)n1Cc1ccco1 [AVG-026] | 1 to 10 |  |
| Cc1c2c(=O)n(-c3ccncn3)n(Cc3ccccc3)c2cc(=O)n1Cc1ccco1 [AVG-108] | 1 to 10 |  |
| Cc1c2c(=O)n(-c3nc4ccccc4s3)n(Cc3ccccc3)c2cc(=O)n1Cc1cccc(N2CCN(C)CC2)n1 [AVG-225] | 0.1 to 1 |  |
| Cc1c2c(=O)n(-c3nc4ccccc4s3)n(Cc3ccccc3)c2cc(=O)n1Cc1cccc(OCCCN(C)C)n1 [AVG-207] | 1 to 10 |  |
| Cc1c2c(=O)n(-c3nc4ccccc4s3)n(Cc3ccccc3Cl)c2cc(=O)n1Cc1cccc(Cl)n1 [AVG-175] | 1 to 10 |  |
| Cc1c2c(=O)n(-c3nc4ccccc4s3)n(C)c2cc(=O)n1Cc1ccccn1 [AVG-037] | > 20 |  |
| Cc1nc(-n2c(=O)c3c(C)n(Cc4ccco4)c(=O)cc3n2Cc2ccccc2)sc1C [AVG-033] | 1 to 10 |  |
| Cc1c2c(=O)n(-c3nc4ccccc4s3)n(Cc3ccccc3)c2cc(=O)n1Cc1cc(Cl)cc(Cl)n1 [AVG-169] | 0.1 to 1 |  |
| COc1cc(C2CC(=O)Nc3[nH]ncc32)ccc1OC1CCCC1 (stereo not shown) [AVG-179] |  | > 20 |
| Cc1c2c(=O)n(-c3ccncc3)n(Cc3ccccc3)c2cc(=O)n1Cc1ccco1 [AVG-082] | 1 to 10 |  |
| Cc1c2c(=O)n(-c3nc4ccccc4s3)n(CC3CCCCO3)c2cc(=O)n1Cc1ccco1 (stereo not shown) [AVG-073] | 1 to 10 |  |
| Cc1c2c(=O)n(-c3nc4ccccc4s3)n(CC3CCOCC3)c2cc(=O)n1Cc1ccco1 [AVG-025] | 1 to 10 |  |
| Cc1c2c(=O)n(-c3nc4ccccc4s3)n(CC3CCCCC3)c2cc(=O)n1Cc1ccco1 [AVG-024] | 1 to 10 |  |
| Cc1c2c(=O)n(-c3nc4ccc(OC(C)C)cc4s3)n(Cc3ccccc3)c2cc(=O)n1Cc1cccc(Cl)n1 [AVG-256] | 0.01 to 0.1 |  |
| Cc1c2c(=O)n(-c3nc4cc(Cl)ccc4s3)n(Cc3ccccc3)c2cc(=O)n1Cc1cccc(Cl)n1 [AVG-184] | 1 to 10 |  |
| Cc1c2c(=O)n(-c3nc4ccccc4s3)n(Cc3cccc(Cl)c3)c2cc(=O)n1Cc1cccc(Cl)n1 [AVG-174] | 1 to 10 |  |
| Cc1c2c(=O)n(-c3cccnn3)n(Cc3ccccc3)c2cc(=O)n1Cc1ccco1 [AVG-109] | 1 to 10 |  |

| SMILES | EC50 (B series compounds) [µM] | EC50 [1] [µM] |
| --- | --- | --- |
| Cc1c2c(=O)n(-c3nc4ccccc4s3)n(C)c2cc(=O)n1Cc1ccc(Cl)cc1 [AVG-032] | > 20 |  |
| COc1ccc(C2CC(=O)Nc3[nH]ncc32)cc1OC1CCCC1 (stereo not shown) [AVG-069, 4-(3-(cyclopentyloxy)-4-methoxyphenyl)-4,5-dihydro-1H-pyrazolo[3,4-b]pyridin-6(7H)-one] |  | > 20 |
| Cc1c2c(=O)n(-c3nc4ccccc4s3)n(Cc3ccccc3)c2cc(=O)n1Cc1cccc(Cl)c1 [AVG-077] | 0.1 to 1 |  |
| COc1cccc(Cn2c(C)c3c(=O)n(-c4cc(Cl)ccn4)n(Cc4ccccc4)c3cc2=O)n1 [AVG-245] | 0.1 to 1 |  |
| Cc1c2c(=O)n(-c3nc4ccccc4s3)n(Cc3ccccc3)c2cc(=O)n1CCN1CCOCC1 [AVG-028] | 1 to 10 |  |
| Cc1c2c(=O)n(-c3ccccn3)n(Cc3ccccc3)c2cc(=O)n1Cc1nccs1 [AVG-239] | 1 to 10 |  |
| Cc1c2c(=O)n(-c3ccccn3)n(Cc3ccccc3)c2cc(=O)n1Cc1ccccn1 [AVG-104] | 1 to 10 |  |
| Cc1c2c(=O)n(-c3nc4ccncc4s3)n(Cc3ccccc3)c2cc(=O)n1Cc1cccc(Cl)n1 [AVG-197] | 0.01 to 0.1 |  |
| Cc1c2c(=O)n(-c3nc4ccccc4s3)n(CC3CCCC3)c2cc(=O)n1Cc1ccco1 [AVG-071] | 1 to 10 |  |
| Cc1c2c(=O)n(-c3nc4ccccc4s3)n(Cc3ccccc3)c2cc(=O)n1C(C)c1cccc(Cl)n1 (stereo not shown) [AVG-170] | 1 to 10 |  |
| COc1ccc(Cn2c3cc(=O)n(Cc4cccc(OC)n4)c(C)c3c(=O)n2-c2ccccn2)cc1 [AVG-232] | 0.01 to 0.1 |  |
| Cc1c2c(=O)n(-c3nc4cnccc4s3)n(Cc3ccccc3)c2cc(=O)n1Cc1cccc(Cl)n1 [AVG-196] | 10 to 20 |  |
| COc1ccc(C2CC(=O)Nc3nn(-c4ccccn4)cc32)cc1OC1CCCC1 (stereo not shown) [AVG-117] |  | 10 to 20 |
| Cc1c2c(=O)[nH]n(Cc3ccccc3)c2cc(=O)n1Cc1ccccn1 [AVG-200] | > 20 |  |
| Cc1c2c(=O)n(-c3nc4ccccc4s3)n(Cc3ccccc3)c2cc(=O)n1Cc1cccc(OC(C)C)n1 [AVG-205] | 0.1 to 1 |  |
| Cc1c2c(=O)n(-c3nc4ccccc4s3)n(Cc3ccccc3)c2cc(=O)n1CC1CCC(=O)N1 (stereo not shown) [AVG-213] | 1 to 10 |  |
| COc1ccccc1Cn1c2cc(=O)n(Cc3cccc(Cl)n3)c(C)c2c(=O)n1-c1nc2ccccc2s1 [AVG-176] | 0.1 to 1 |  |
| Cc1cccc2nc(-n3c(=O)c4c(C)n(Cc5cccc(Cl)n5)c(=O)cc4n3Cc3ccccc3)sc12 [AVG-194] | 0.1 to 1 |  |
| Cc1c2c(=O)n(-c3ccccn3)n(Cc3ccccc3)c2cc(=O)n1Cc1ccccc1F [AVG-130] | 0.1 to 1 |  |
| Cc1c2c(=O)n(-c3nc4ccccc4s3)n(Cc3ccccc3)c2cc(=O)n1Cc1ncccc1Cl [AVG-161] | 1 to 10 |  |
| COc1ccc(C2CC(=O)Nc3nn(-c4ccccc4)cc32)cc1OC1CCCC1 (stereo not shown) [AVG-065b] |  | 1 to 10 |
| Cc1c2c(=O)n(-c3ncccn3)n(Cc3ccccc3)c2cc(=O)n1Cc1ccco1 [AVG-105] | > 20 |  |
| COc1cc(C2CC(=O)Nc3c2cnn3-c2ccccc2)ccc1OC1CCCC1 (stereo not shown) [AVG-066] |  | 10 to 20 |
| Cc1c2c(=O)n(-c3nc4ccccc4s3)n(Cc3ccccc3)c2cc(=O)n1Cc1ccncn1 [AVG-092] | 1 to 10 |  |

— patent US10906899B2, “Bicyclic fused pyrazole derivatives for the treatment of RSV” (GEORGIA STATE UNIVERSITY RESEARCH FOUNDATION, INC., priority 2016, dated 2021)
